What is called IC50 is the concentration that inhibits the measured activity by half. Read a high IC50 as a need for much substance.

One test addresses T1, MAO B (Rattus norvegicus, UniProt P19643).
T1 construct: two types A and B monoamine oxidase in rat brain tissue; from tissue; host or cells: rat brain
T1 sequence (P19643 1-520): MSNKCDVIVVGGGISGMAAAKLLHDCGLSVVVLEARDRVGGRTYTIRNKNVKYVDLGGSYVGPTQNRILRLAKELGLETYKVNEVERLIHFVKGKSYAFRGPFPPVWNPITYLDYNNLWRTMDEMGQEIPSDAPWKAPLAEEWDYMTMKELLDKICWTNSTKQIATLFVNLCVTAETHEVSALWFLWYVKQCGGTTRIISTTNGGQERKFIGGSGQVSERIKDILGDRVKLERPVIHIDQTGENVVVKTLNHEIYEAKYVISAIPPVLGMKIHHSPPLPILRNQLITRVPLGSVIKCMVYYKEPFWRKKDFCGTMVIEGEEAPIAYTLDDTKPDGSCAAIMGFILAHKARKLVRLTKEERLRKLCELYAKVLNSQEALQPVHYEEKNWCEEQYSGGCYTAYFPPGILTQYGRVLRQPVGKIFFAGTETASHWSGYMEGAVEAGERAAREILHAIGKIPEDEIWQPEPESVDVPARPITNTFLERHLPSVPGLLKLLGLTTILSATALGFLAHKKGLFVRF
The test can be described thus: in vitro inhibitory action on type B monoamine oxidase in rat brain tissue (J. Neurochem., 1983, 40, 1534). Type of test: biochemical. Conditions: 200 mM Phenethylamine[14-C] as substrate. The source says: This test measures the in vitro inhibitory action of the two types A and B monoamine oxidase in rat brain tissue.

The next test relates to MAO A / MAO B. The test can be described thus: in vitro inhibitory action on types A and B monoamine oxidase in rat brain tissue: A/B selectivity. The conditions noted are these: ratio MAO A / MAO B, 5-Hydroxytryptamine[14-C] 1.0 mM (MAO A), Phenethylamine[14-C] 200 mM (MAO B). Type of test: biochemical. The source says: The compounds of the present invention are useful in the inhibition of monoamine oxidases. […] This test measures the in vitro inhibitory action of the two types A and B monoamine oxidase in rat brain tissue. […] Finally, it is expected that the compounds of the present invention may be useful in treating neurological disorders including memory disorders, cognitive dysfunction, dementia, dementia of the Alzheimer's type, Parkinson's syndrome, depression, hyperactive syndrome, schizophrenia, and changes in temperament.

For `CC(=O)c1cc(OCc2cccc(Cl)c2)ccc1OCCCO` [Example 32], the midpoint of inhibition against MAO B, the IC50, lay at 100 nM. For the same compound, in the test with MAO A / MAO B, the A/B is recorded as 400.
For `CCC(=O)c1cc(OCc2ccc(F)cc2)ccc1OCCCC#N` [Example 33], the IC50 against MAO B is more than 100000 nM.
On MAO B, `CC(=O)c1cc(OCc2cc(C(F)(F)F)cc(C(F)(F)F)c2)ccc1OCCCC#N` [Example 6, 4-{2'-Acetyl-4'-[(3,5-trifluoromethylphenyl)methyloxy]phenoxy}-butyronitrile] had an IC50 of 100 nM. The A/B with MAO A / MAO B is listed as more than 10000.
In the same order, the values of `C#CCN(C)C(C)COc1ccc(OCc2cccc(Cl)c2)c(C(C)=O)c1` (centres unmarked) [Example 8, N-2-[3'-Acyl-4'-(m-chlorophenylmethyloxy)phenoxy]-1-methylethyl-N-methylpropargylamine] are 3 nM and less than 300.
`CNC(C)COc1ccc(OCc2cccc(Cl)c2)c(C(C)=O)c1` (centres unmarked) [Example 19]: half-maximal inhibition against MAO B (IC50) required 7000 nM.

The record behind these values is patent publication US5380755A, “Alkyl and alkylbenzyl ethers of substituted hydroquinones” (The Du Pont Merck Pharmaceutical Company, priority 1992, dated 1995).
